Measurements published in patent publication US20180051309A1, “METHODS TO ASSESS MONITOR AND CONTROL BACTERIAL BIOFILMS” (ExxonMobil Research and Engineering Company, priority 2016, published 2018).

Test system: prophage regions DVU0189-DVU0221 and DVU2847-DVU2879
Assay: normalized gene expression (FPKM) of two prophage regions in planktonic and biofilm samples
Assay type: cell-based, Desulfovibrio vulgaris
Details: biofilm controlled via indole, FIG. 1
Description: Overexpression of prophages is observed in biofilm samples when compared to planktonic samples.

Question: With `c1ccc2[nH]ccc2c1` [indole] as the compound, how does the phage genes expression read?
Answer: repressed phage genes expression
